Data: patent publication US11173124B2, “Oral delivery of GLP-1 peptide analogs” (MEDIMMUNE LIMITED, priority 2017, dated 2021)
Like-named read-outs stand apart in the source and are kept apart here.

Assays:
[1] = Caco-2 permeability assay, permeability coefficient Papp (Examples 1 and 2); type: in vitro ADME, human
Excerpt: The Caco-2 cell line is a continuous cell line of heterogeneous human epithelial colorectal adenocarcinoma cells, which when cultured under specific conditions, become differentiated and polarized such that their phenotype, morphologically and functionally, resembles the enterocytes lining the small intestine. Caco-2 cells express tight junctions, microvilli, and a number of enzymes and transporters that are characteristic of such enterocytes. Caco-2 cells are most commonly used as a tight junction monolayer that provides a physical and biochemical barrier to the passage of drugs and thus serves as an in vitro model of the human small intestinal mucosa to predict the absorption of orally administered drugs. Caco-2 permeability assays were performed by Cyprotex US, LLC (MA, USA) to assess the efficacy of different permeation enhancers. Caco-2 cells were grown on Transwell filters until a transepithelial electric resistance of ˜1000 ohms/cm^2 was achieved. The cells were incubated for three hours with media containing test samples on the apical (top) side of the cell layer, and with blank media on the basolateral (lower) side of the cell layer. Media from the apical and basolateral sides was collected separately after three hours and evaluated for the amount of peptide present on each side. Table 2 gives the permeability coefficient (Papp) of the various test samples, which include the SEQ ID NO:3 GLP-1 peptide in the presence of different excipients.
The apparent permeability coefficients (Papp) of all polypeptides were calculated using the following equation: Papp=dQ/dt×1/A C0
Where dQ/dt is the amount of solutes transported across the Caco-2 barrier in time dt, C0 is the solute concentration in the apical compartment at time zero, and A is the cross-sectional area of the epithelium in contact with apical solution.
The next Caco-2 study was performed to evaluate the ability of additional excipients to enhance the permeability of the SEQ ID NO:3 peptide across tight junction cell layers.

[2] = First rat intraduodenal study, sodium caprate as permeation enhancer (Example 4); type: in vivo; conditions: for AUC / Cmax / Tmax / half-life: in vivo; for bioavailability: plasma
Procedure: Solution formulations comprising GLP-1 peptide analogs were injected into rats in the duodenum segment of the small intestine. The first ID study involved the use of sodium caprate as the permeation enhancer and the SEQ ID NO:3 GLP-1 peptide analog. Absolute bioavailability (% F) is a percentage-expressed measure of systemic drug exposure after oral, or in the current example intraduodenal, administration to the systemic exposure generated with intravenous (IV) administration of drug solution. Absolute bioavailability, (% F), is calculated as a percentage of systemic, or blood, drug concentration area under curve (AUC) of the AUC of IV administration adjusted to the amounts of drug given via these routes of administration.

[3] = Intraduodenal, 1 mg/kg peptide, 0 mg/kg sodium caprate, 0.5 mg/mL in PBS pH 8.0
[4] = 50 mg/kg, pH 8.5, rat, Intraduodenal, 50 mg/kg peptide + 50 mg/kg sodium caprate, PBS pH 8.5
[5] = iv, 0.01 mg/kg, pH 8, rat, 0.01 mg/kg peptide in PBS pH 8.0
[6] = pH 8, rat, Intraduodenal, 1 mg/kg peptide, 0 mg/kg sodium caprate, 0.5 mg/mL in PBS pH 8.0
[7] = pH 8.5, rat, Intraduodenal, 1 mg/kg peptide + 50 mg/kg sodium caprate, PBS pH 8.5
[8] = pH 8.5, rat, Intraduodenal, 10 mg/kg peptide + 50 mg/kg sodium caprate, PBS pH 8.5
[9] = sc, 0.118 mg/kg, Subcutaneous, 0.118 mg/kg peptide in 0.1% BSA-PBS

Papp A→B ([1]; Caco-2, Example 1, 0.05 mg/mL peptide, ⅛ Lauroglycol FCC:Kolliphor EL:Transcutol HP 5:4:3 (w/w)): 0.09 ×10⁻⁶ cm/s | Papp A→B ([1]; Caco-2, Example 1, 0.1 mg/mL peptide, 0.5 mg/mL Tetradecylmaltoside): 0.05 ×10⁻⁶ cm/s | Papp A→B ([1]; Caco-2, Example 1, 0.1 mg/mL peptide, 2.5 mg/mL Tetradecylmaltoside): 0.88 ×10⁻⁶ cm/s | Papp A→B ([1]; Caco-2, Example 1, 0.1 mg/mL peptide, 5.0 mg/mL Sodium Chenodeoxycholate): 6.2 ×10⁻⁶ cm/s | Papp A→B ([1]; Caco-2, Example 1, 0.1 mg/mL peptide, 10.0 mg/mL Sodium Decanoate): 0.4 ×10⁻⁶ cm/s | Papp A→B ([1]; Caco-2, Example 1, 0.1 mg/mL peptide, 12.5 mg/mL Tetradecylmaltoside): 7.8 ×10⁻⁶ cm/s | Papp A→B ([1]; Caco-2, Example 1, 0.1 mg/mL peptide, 25.0 mg/mL Sodium Chenodeoxycholate): 10.3 ×10⁻⁶ cm/s | Papp A→B ([1]; Caco-2, Example 1, 0.1 mg/mL peptide, ¼ Lauroglycol FCC:Kolliphor EL:Transcutol HP 5:4:3 (w/w)): 0.05 ×10⁻⁶ cm/s | Papp A→B ([1]; Caco-2, Example 2, 0.1 mg/mL peptide, 12.5 mg/mL Dodecylmaltoside): 6.4 ×10⁻⁶ cm/s | Papp A→B ([1]; Caco-2, Example 2, 0.1 mg/mL peptide, 12.5 mg/mL Tetradecylmaltoside): 1.4 ×10⁻⁶ cm/s | Papp A→B ([1]; Caco-2, Example 2, 0.1 mg/mL peptide, 25.0 mg/mL Sodium Chenodeoxycholate, 12.5 mg/mL Propyl gallate): 43.1 ×10⁻⁶ cm/s | improvement in permeation ([2]; ID, 1 mg/kg peptide, 50 mg/kg sodium caprate (to 0.15%)): ~5 fold | F ([2]; Intraduodenal, 1 mg/kg peptide + 50 mg/kg sodium caprate, PBS pH 8.5): 0.15% | F [2, 3]: 0.035% | F ([2]; Intraduodenal, 10 mg/kg peptide + 50 mg/kg sodium caprate, PBS pH 8.5): 0.29% | F ([2]; Intraduodenal, 50 mg/kg peptide + 50 mg/kg sodium caprate, PBS pH 8.5): 0.71% | F ([2]; Intravenous, 0.01 mg/kg peptide in PBS pH 8.0): 100% | AUC [2, 4]: 46000 ng·h/mL | Cmax [2, 4]: 6300 ng/mL | Tmax [2, 4]: 0.44 h | half-life ([2]; 50 mg/kg, pH 8.5, rat, Intraduodenal, 50 mg/kg peptide + 50 mg/kg sodium caprate, PBS pH 8.5, read-out: T ½ (converted)): 8.3 h | AUC [2, 5]: 1300 ng·h/mL | Cmax [2, 5]: 210 ng/mL | Tmax [2, 5]: 0.12 h | half-life ([2]; iv, 0.01 mg/kg, pH 8, rat, Intravenous, 0.01 mg/kg peptide in PBS pH 8.0, read-out: T ½ (converted)): 10 h | AUC [2, 6]: 45 ng·h/mL | Cmax [2, 6]: 5.1 ng/mL | Tmax [2, 6]: 2.3 h | half-life ([2]; pH 8, rat, Intraduodenal, 1 mg/kg peptide, 0 mg/kg sodium caprate, 0.5 mg/mL in PBS pH 8.0, read-out: T ½ (converted)): 8.8 h | AUC [2, 7]: 200 ng·h/mL | Cmax [2, 7]: 34 ng/mL | Tmax [2, 7]: 0.38 h | half-life ([2]; pH 8.5, rat, Intraduodenal, 1 mg/kg peptide + 50 mg/kg sodium caprate, PBS pH 8.5, read-out: T ½ (converted)): 9.3 h | AUC [2, 8]: 3800 ng·h/mL | Cmax [2, 8]: 470 ng/mL | Tmax [2, 8]: 0.44 h | half-life ([2]; pH 8.5, rat, Intraduodenal, 10 mg/kg peptide + 50 mg/kg sodium caprate, PBS pH 8.5, read-out: T ½ (converted)): 10 h | AUC [2, 9]: 11000 ng·h/mL | Cmax [2, 9]: 460 ng/mL | Tmax [2, 9]: 9 h | half-life ([2]; sc, 0.118 mg/kg, Subcutaneous, 0.118 mg/kg peptide in 0.1% BSA-PBS, read-out: T ½ (converted)): 11 h | increase of bioavailability ([2]; intraduodenal, 0.71% with 50 mg/kg sodium caprate vs 0.035% without formulation intervention): ~20 fold | bioavailability [2, 3]: 0.035% | bioavailability ([2]; sc, Subcutaneous, 0.118 mg/kg peptide in 0.1% BSA-PBS): 71%
SMILES: CC[C@H](C)[C@H](NC(=O)C(C)(Cc1ccccc1)NC(=O)[C@H](CCC(=O)O)NC(=O)[C@H](CCCCNC(=O)COCCOCCNC(=O)COCCOCCNC(=O)CC[C@H](NC(=O)CCCCCCCCCCCCCCCCC(=O)O)C(=O)O)NC(=O)[C@H](C)NC(=O)[C@H](C)NC(=O)[C@H](CCC(=O)O)NC(=O)CNC(=O)[C@H](CCC(=O)O)NC(=O)[C@H](CC(C)C)NC(=O)C(C)(Cc1ccccc1)NC(=O)[C@H](CO)NC(=O)C(C)(CO)NC(=O)[C@@H](NC(=O)[C@H](CC(=O)O)NC(=O)[C@H](CO)NC(=O)[C@@H](NC(=O)C(C)(Cc1ccccc1)NC(=O)[C@H](CO)NC(=O)CNC(=O)[C@H](CCC(=O)O)NC(=O)C(C)(C)NC(=O)[C@@H](N)Cc1c[nH]cn1)[C@@H](C)O)C(C)C)C(=O)N[C@@H](C)C(=O)NC(C)(Cc1ccccc1)C(=O)N[C@H](C(=O)N[C@H](C(=O)NC(C)(CCCCN)C(=O)NCC(=O)NCC(N)=O)C(C)C)C(C)C (stereo partly drawn) [SEQ ID NO: 3, Free-H-[AIB]-EGS-[αMePhe]-TSDV-[αMeSer]-S-[αMePhe]-LEGEAAK[(PEG2)2-γE-Stearate]-E-[αMePhe]-IA-[αMePhe]-VV-[αMeLys]-GG-amide]
